Assay results reported in patent US10604555B2, “GIP derivatives and uses thereof” (priority 2018, dated 2020).
Read-outs that look alike come from different tables or passages of the source. Side-chain parts run from the residue outwards. [ ]: non-standard residue; d: D form. The star is where a group is joined. C20 diacid = O=C(O)CCCCCCCCCCCCCCCCCCC(=O)*; Nle = CCCC[C@H](N)C(=O)O; AEEA = NCCOCCOCC(=O)O; Aib = CC(C)(N)C(=O)O

Columns and labels:
[1] = assay type: physicochemical; details: pH 7.4
[2] = ThT fibrillation assay (physical stability); assay type: physicochemical; details: 250 μM, pH 7.4, 37° C., 45 hours of incubation
Procedure: The Thioflavin T assay was performed as outlined in Schlein (2017), AAPS J, 19(2), 397-408.
This has traditionally been measured by visual inspection of the sample. However, that kind of measurement is very cumbersome and depending on the observer. Therefore, the application of a small molecule indicator probe is much more advantageous. Thioflavin T (ThT) is such a probe and has a distinct fluorescence signature when binding to fibrils [Naiki et al. (1989) Anal. Biochem. 177, 244-249; LeVine (1999) Methods. Enzymol. 309, 274-284].
The time course for fibril formation can be described by a sigmoidal curve with the following expression [Nielsen et al. (2001) Biochemistry 40, 6036-6046]:
Here, F is the ThT fluorescence at the time t. The constant t0 is the time needed to reach 50% of maximum fluorescence. The two important parameters describing fibril formation are the lag-time calculated by t0−2τ and the apparent rate constant kapp 1/τ.
Few of those intermediates nucleate to form a template onto which further intermediates may assembly and the fibrillation proceeds. The lag-time corresponds to the interval in which the critical mass of nucleus is built up and the apparent rate constant is the rate with which the fibril itself is formed.
Samples are prepared freshly before each assay. The drug substance was solved with 250 μM of the GIP derivative in 8 mM phosphate, 14 mg/mL propylene glycol, 58 mM phenol, pH 7.4. The pH of the sample was adjusted to the desired value using appropriate amounts of concentrated NaOH and HCl. Thioflavin T was added to the samples from a stock solution in H2O to a final concentration of 1 μM.
Sample aliquots of 200 μl were placed in each well of a 96 well microtiter plate (Packard OptiPlate™-96, white polystyrene). Four replica of each sample (corresponding to one test condition) was placed in one column of wells. The plate was sealed with Scotch Pad (Qiagen).
Incubation, shaking and measurement of the ThT fluorescence emission were done in a Fluoroskan Ascent FL fluorescence platereader (Thermo Labsystems). […] Fluorescence measurement was done using excitation through a 444 nm filter and measurement of emission through a 485 nm filter.
Each run was initiated by incubating the plate at the assay temperature for 10 min. The plate was measured every 20 minutes for a desired period of time. Between each measurement, the plate was shaken and heated as described.
After completion of the ThT assay the replica of each sample was pooled and centrifuged at 20000 rpm for 30 minutes at 18° C. The supernatant was filtered through a 0.22 μm filter and an aliquot was transferred to a HPLC vial. The concentration of the filtered sample relative to the initial sample (in percentage) was reported as the recovery.
The measurement points were saved in Microsoft Excel format for further processing and curve drawing and fitting was performed using GraphPad Prism. […] The data points were a mean of the four replica and shown with standard deviation error bars. Only data obtained in the same experiment (i.e. samples on the same plate) were presented in the same graph ensuring a relative measure of fibrillation between experiments.
The data set may be fitted to Eq. (1).

[3] = Chemical stability: HMWP formation by SEC-MS; assay type: physicochemical; details: 37° C., 4 weeks, 250 μM, pH 7.4
Procedure: The aim of this study is to determine the chemical stability of GIP derivative compositions. As a measure of stability of the GIP derivative composition, the formation of high molecular weight peptide formation (% HMWP) as a function of time was analysed by size-exclusion chromatography (SEC-MS). Further, the purity loss of the GIP derivative compositions was measured by LCMS. Samples for chemical stability assays were freshly prepared before each assay. […] The pH of the sample was adjusted to the desired value using appropriate amounts of concentrated NaOH and HCl. […] Formation of covalent oligomers (HMWPs) was analysed and identified by a SEC-MS method. […] The LC system was coupled to both a TUV detector operated at 215 nm, 10 Hz and a high resolution QToF mass spectrometer from Waters (Synapt G2S) operated in positive ion mode and m/z range of 100 to 4000 with normal resolution setting. Lock mass correction against Leu-Enkephalin was done every 31 sec. Spectra were processed in MassLynx version 4.1 and MaxEnt deconvoluted.

[4] = Chemical stability: purity loss by LCMS; assay type: physicochemical; details: 37° C., 4 weeks, 250 μM, pH 7.4
Procedure: The aim of this study is to determine the chemical stability of GIP derivative compositions. As a measure of stability of the GIP derivative composition, the formation of high molecular weight peptide formation (% HMWP) as a function of time was analysed by size-exclusion chromatography (SEC-MS). Further, the purity loss of the GIP derivative compositions was measured by LCMS. Samples for chemical stability assays were freshly prepared before each assay. […] The pH of the sample was adjusted to the desired value using appropriate amounts of concentrated NaOH and HCl. […] The column oven was kept at 55° C. […] The solvents were pumped from a binary solvent manager system and mixed on the high pressure side in a mixer with a volume of 50 μl. The gradient and flow can be seen in table 4: [table] A Flow-through-needle auto sampler at 8° C. was used to inject 1 μl of each sample. The effluent passed through a tunable UV detector (TUV) tuned to 215 nm. The outlet from the UV detector passed to the electrospray source of the mass spectrometer. The capillary was held at 3 kV and dry nitrogen gas was purged at a flow of 750 I/h and a temperature of 250° C. The source block was kept at 120° C. and the large bore cone was flushed with nitrogen at 50 I/h with standard electrode potentials on the rest of the instrument. The MS was operated in high resolution mode with a nominal resolution of 35000. The ToF analyser was operated in ADC mode with an m/z window from 100-2000.

[5] = cited from earlier work

Row | Compound | solubility at given pH [1] | ThT Assay Lag time [2] [h] | HMWP formation (%/month) [3] [%/month] | Purity loss (%/month) [4] [%/month] | half-life of hGIP(1-42) measured in man ([5]; Deacon et al., J. Clin. Endocrinol. & Metab.) [min] | half-life of hGIP(1-42) measured in man ([5]; Meier et al., Diabetes)
1 | N{1}-acetyl,N{Epsilon-24}-[2-[2-[2-[[2-[2-[2-[[4-[(19-carboxynonadecanoylamino)methyl]cyclohexanecarbonyl]amino]ethoxy]ethoxy]acetyl]amino]ethoxy]ethoxy]acetyl]-[D-Tyr1,Aib2,Nle14,Arg18,Lys24,Pro31]-hGIP(1-31) amide (Ac-[dY][Aib]EGTFISDYSIA[Nle]DKIRQQDFVK([AEEA-AEEA-4‑(aminomethyl)cyclohexanecarbonyl-C20 diacid])WLLAQKP-NH2) [Compound 44] | **Compound not soluble at given pH. | – | – | – | – | –
2 | CC[C@H](C)[C@H](NC(=O)[C@H](CO)NC(=O)[C@H](Cc1ccc(O)cc1)NC(=O)[C@H](CC(=O)O)NC(=O)[C@H](CO)NC(=O)[C@@H](NC(=O)[C@H](Cc1ccccc1)NC(=O)[C@@H](NC(=O)CNC(=O)[C@H](CCC(=O)O)NC(=O)[C@H](C)NC(=O)[C@@H](N)Cc1ccc(O)cc1)[C@@H](C)O)[C@@H](C)CC)C(=O)N[C@@H](C)C(=O)N[C@@H](CCSC)C(=O)N[C@@H](CC(=O)O)C(=O)N[C@@H](CCCCN)C(=O)N[C@H](C(=O)N[C@@H](Cc1c[nH]cn1)C(=O)N[C@@H](CCC(N)=O)C(=O)N[C@@H](CCC(N)=O)C(=O)N[C@@H](CC(=O)O)C(=O)N[C@@H](Cc1ccccc1)C(=O)N[C@H](C(=O)N[C@@H](CC(N)=O)C(=O)N[C@@H](Cc1c[nH]c2ccccc12)C(=O)N[C@@H](CC(C)C)C(=O)N[C@@H](CC(C)C)C(=O)N[C@@H](C)C(=O)N[C@@H](CCC(N)=O)C(=O)N[C@@H](CCCCN)C(=O)NCC(=O)N[C@@H](CCCCN)C(=O)N[C@@H](CCCCN)C(=O)N[C@@H](CC(N)=O)C(=O)N[C@@H](CC(=O)O)C(=O)N[C@@H](Cc1c[nH]c2ccccc12)C(=O)N[C@@H](CCCCN)C(=O)N[C@@H](Cc1c[nH]cn1)C(=O)N[C@@H](CC(N)=O)C(=O)N[C@H](C(=O)N[C@H](C(=O)N[C@@H](CCC(N)=O)C(=O)O)[C@@H](C)O)[C@@H](C)CC)C(C)C)[C@@H](C)CC [hGIP(1-42), reference compound] | – | 0.33 | 2.0 | 73.1 | ~7 | about 5 min
